According to paper PMC9578043 (Journal of medicinal chemistry, 2021):

Key:
[1] = Liver microsomal stability, monkey; assay type: in vitro ADME, cynomolgus monkey; settings: for half-life: cynomolgus monkey
[2] = Liver microsomal stability, human; assay type: in vitro ADME
[3] = Liver microsomal stability, mouse; assay type: in vitro ADME
[4] = Liver microsomal stability, rat; assay type: in vitro ADME
ATTR-CM [5] = settings: 28 day phase II, cited from earlier work
hereditary ATTR = settings: patients with hereditary ATTR; cited from earlier work
TTR = settings: ITC; cited from earlier work
ATTR-CM [6] = settings: 441 ATTR-CM patients, compared to placebo; cited from earlier work
serum RBP4 levels = tested on: serum RBP4 levels; design: species or system mice; settings: mouse, in vivo, po
CYP2D6 = CYP2D6 (Homo sapiens, UniProt P10635); experiment: CYP inhibition 2D6; assay type: in vitro ADME
CYP2D6, sequence (P10635 whole entry): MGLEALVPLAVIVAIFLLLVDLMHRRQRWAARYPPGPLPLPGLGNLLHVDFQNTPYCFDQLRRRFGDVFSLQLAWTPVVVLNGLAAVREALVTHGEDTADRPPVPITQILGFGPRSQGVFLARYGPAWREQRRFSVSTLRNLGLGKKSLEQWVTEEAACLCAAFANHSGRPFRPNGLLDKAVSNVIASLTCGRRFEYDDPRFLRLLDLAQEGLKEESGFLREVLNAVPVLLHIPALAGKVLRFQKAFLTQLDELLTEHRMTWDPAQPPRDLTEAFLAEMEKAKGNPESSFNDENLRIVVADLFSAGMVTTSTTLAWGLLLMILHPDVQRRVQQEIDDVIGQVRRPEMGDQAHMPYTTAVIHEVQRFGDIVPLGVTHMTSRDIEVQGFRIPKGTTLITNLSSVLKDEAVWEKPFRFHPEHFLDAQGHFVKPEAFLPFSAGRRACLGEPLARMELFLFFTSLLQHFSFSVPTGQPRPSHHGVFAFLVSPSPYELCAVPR

[7] = Kinetic solubility in PBS; assay type: physicochemical; settings: pH 7.4
CYP2C19 = CYP2C19 (Homo sapiens, UniProt P33261); experiment: CYP inhibition 2C19; assay type: in vitro ADME
CYP2C19, sequence (P33261 whole entry): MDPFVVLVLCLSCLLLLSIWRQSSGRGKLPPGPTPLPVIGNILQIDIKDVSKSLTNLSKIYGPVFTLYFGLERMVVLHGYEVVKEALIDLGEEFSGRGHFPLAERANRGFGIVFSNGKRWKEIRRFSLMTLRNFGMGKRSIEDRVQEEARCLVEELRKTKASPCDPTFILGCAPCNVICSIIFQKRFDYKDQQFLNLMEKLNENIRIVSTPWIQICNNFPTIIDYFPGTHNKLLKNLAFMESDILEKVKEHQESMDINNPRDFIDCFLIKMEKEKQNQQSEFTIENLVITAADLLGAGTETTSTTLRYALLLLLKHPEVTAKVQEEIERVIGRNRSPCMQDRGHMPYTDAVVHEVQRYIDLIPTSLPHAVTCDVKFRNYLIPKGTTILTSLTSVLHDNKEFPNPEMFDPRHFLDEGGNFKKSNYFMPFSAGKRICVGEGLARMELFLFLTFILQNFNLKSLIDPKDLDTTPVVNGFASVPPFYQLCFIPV

[8] = Plasma protein binding, human; assay type: in vitro ADME
CYP3A4 = CYP3A4 (Homo sapiens, UniProt P08684); experiment: CYP inhibition 3A4; assay type: in vitro ADME
CYP3A4, sequence (P08684 whole entry): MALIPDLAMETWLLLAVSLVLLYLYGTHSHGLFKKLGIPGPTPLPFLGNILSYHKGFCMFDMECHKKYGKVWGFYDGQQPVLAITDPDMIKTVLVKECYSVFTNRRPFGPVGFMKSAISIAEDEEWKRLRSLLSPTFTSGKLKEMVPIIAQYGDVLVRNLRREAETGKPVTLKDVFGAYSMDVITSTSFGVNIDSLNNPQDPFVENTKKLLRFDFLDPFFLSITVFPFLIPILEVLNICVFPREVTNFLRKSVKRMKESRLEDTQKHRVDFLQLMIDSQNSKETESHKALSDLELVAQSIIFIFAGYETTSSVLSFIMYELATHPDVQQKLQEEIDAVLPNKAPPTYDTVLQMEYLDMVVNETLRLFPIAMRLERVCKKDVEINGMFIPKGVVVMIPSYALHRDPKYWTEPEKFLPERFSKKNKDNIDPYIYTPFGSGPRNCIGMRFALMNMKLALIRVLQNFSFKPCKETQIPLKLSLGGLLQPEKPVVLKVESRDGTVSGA

[9] = Plasma protein binding, rat; assay type: in vitro ADME
CYP2C9 = CYP2C9 (Homo sapiens, UniProt P11712); experiment: CYP inhibition 2C9; assay type: in vitro ADME
CYP2C9, sequence (P11712 whole entry): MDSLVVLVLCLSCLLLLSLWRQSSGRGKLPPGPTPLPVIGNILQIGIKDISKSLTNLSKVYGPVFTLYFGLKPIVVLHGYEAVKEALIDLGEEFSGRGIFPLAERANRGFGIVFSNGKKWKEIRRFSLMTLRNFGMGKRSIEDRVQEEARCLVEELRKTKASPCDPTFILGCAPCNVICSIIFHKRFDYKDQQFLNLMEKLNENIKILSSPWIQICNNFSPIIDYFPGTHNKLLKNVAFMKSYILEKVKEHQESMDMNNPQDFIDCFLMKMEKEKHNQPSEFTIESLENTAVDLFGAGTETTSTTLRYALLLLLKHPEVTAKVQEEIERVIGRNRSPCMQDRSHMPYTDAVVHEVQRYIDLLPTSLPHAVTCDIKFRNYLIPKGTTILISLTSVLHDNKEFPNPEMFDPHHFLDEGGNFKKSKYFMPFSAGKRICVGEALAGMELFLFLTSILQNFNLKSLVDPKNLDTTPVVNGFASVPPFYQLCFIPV

Structure (SMILES)	half-life ([1]; microsomes) [h]	half-life ([2]; microsomes) [h]	half-life ([3]; microsomes) [h]	half-life ([4]; microsomes) [h]	half-life ([1]; liver microsomes) [h]	half-life ([2]; liver microsomes) [h]	half-life ([3]; liver microsomes) [h]	half-life ([4]; liver microsomes) [h]	other results
Cc1ccc(C(=O)O)cc1N1CCN(c2c(C)n[nH]c2C)CC1 [20c, 3-(4-(3,5-dimethyl-1H-pyrazol-4-yl)piperazin-1-yl)-4-methylbenzoic acid]	> 1	> 1	> 1	> 1	–	–	–	–	–
Cc1n[nH]c(C)c1N1CCN(c2cc(-c3nn[nH]n3)ccc2F)CC1 [compound 54, 1-(3,5-dimethyl-1H-pyrazol-4-yl)-4-(2-fluoro-5-(2H-tetrazol-5-yl)phenyl)piperazine]	< 1	1.26	< 1	< 1	–	–	–	–	microsomal CLint ([2]; microsomes): 18.4 µL/min/mg
Cc1n[nH]c(C)c1CCCOc1cc(C(=O)O)ccc1F [AG10, acoramidis]	–	–	–	–	–	–	–	–	stabilization of TTR (ATTR-CM [5]; ATTR-CM patients with symptomatic chronic heart failure): near-complete stabilization; tolerability (ATTR-CM [5]): well tolerated
Cc1cc(F)c(N2CCN(c3c(C)n[nH]c3C)CC2)cc1C(=O)O [20i, 5-(4-(3,5-dimethyl-1H-pyrazol-4-yl)piperazin-1-yl)-4-fluoro-2-methylbenzoic acid]	–	–	–	–	> 1	> 1	> 1	> 1	–
Cc1n[nH]c(C)c1N1CCN(c2cc(C(=O)O)ccc2Cl)CC1 [20e, 4-chloro-3-(4-(3,5-dimethyl-1H-pyrazol-4-yl)piperazin-1-yl)benzoic acid]	–	–	–	–	> 1	> 1	> 1	> 1	–
O=C(O)c1ccc2nc(-c3cc(Cl)cc(Cl)c3)oc2c1 [tafamidis]	–	–	–	–	–	–	–	–	patients who do not respond (hereditary ATTR): Approximately 30%; ΔH (TTR): -5.00 kcal/mol; reduction of the rate of cardiovascular-related hospitalizations (ATTR-CM [6]): 32%; reduction of the risk of death (ATTR-CM [6]): 30%
Cc1n[nH]c(C)c1N1CCN(c2cc(C(=O)O)ccc2F)CC1 [compound 14, 3-(4-(3,5-dimethyl-1H-pyrazol-4-yl)piperazin-1-yl)-4-fluorobenzoic acid]	> 1	> 1	> 1	> 1	–	–	–	–	changes in serum TTR levels (serum RBP4 levels): No changes
COc1ccc(C(=O)O)cc1N1CCN(c2c(C)n[nH]c2C)CC1 [20b, 3-(4-(3,5-dimethyl-1H-pyrazol-4-yl)piperazin-1-yl)-4-methoxybenzoic acid]	–	–	–	–	> 1	> 1	> 1	> 1	inhibition at 10 µM (CYP2D6): 8%; solubility [7]: ≥ 200 µM; inhibition at 10 µM (CYP2C19): 4.2%; fraction unbound [8]: 0.25; inhibition at 10 µM (CYP3A4): 19.6%; microsomal CLint ([1]; monkey, liver microsomes): < 23.1 µL/min/mg; remaining at 0.5 h ([1]; monkey, liver microsomes): 102%; microsomal CLint ([2]; liver microsomes): < 23.1 µL/min/mg; remaining at 0.5 h ([2]; liver microsomes): 108%; microsomal CLint ([3]; liver microsomes): < 23.1 µL/min/mg; remaining at 0.5 h ([3]; liver microsomes): 102%; fraction unbound [9]: 0.22; inhibition at 10 µM (CYP2C9): 1.4%; microsomal CLint ([4]; liver microsomes): < 23.1 µL/min/mg; remaining at 0.5 h ([4]; liver microsomes): 101%
Cc1n[nH]c(C)c1N1CCN(c2cc(C(=O)O)ccc2C(F)(F)F)CC1 [20d, 3-(4-(3,5-dimethyl-1H-pyrazol-4-yl)piperazin-1-yl)-4-(trifluoromethyl)benzoic acid]	> 1	> 1	> 1	> 1	–	–	–	–	–
